Experimental data reported in patent publication US12291502B2, “Topoisomerase II-alpha inhibitors and methods of treating cancer using the same” (The Regents of the University of Colorado, priority 2019, dated 2025).
Where two headings read alike, the source gives them in different places.

What was measured:
Human TOP2A = molecular target: T1, Human TOP2A (Homo sapiens, UniProt P11388); assay: TOP2A DNA decatenation assay (kDNA, agarose gel); assay type: biochemical; conditions: for TOP2A inhibition, result in words: decatenation screen at 30 μM
T1 construct: purchased TopoGEN (Buena Vista, CO)
Description: Inhibition of TOP2A activity. Human TOP2A, kDNA, and assay buffers were obtained from TopoGEN (Buena Vista, CO). The synthesized compounds were screened for their TOP2A inhibitory activity by the intensity of DNA decatenation bands on a DNA gel when compared to the vehicle. Compounds were initially incubated with TOP2A (3 U/reaction) for 20 min at a 30 μM and 1.2% DMSO concentration in a 37° C. incubator without CO2.
The decatenation reaction was initiated immediately after by adding 2 mM ATP and 35 ng/reaction of kDNA, then incubated for 1 hour in a 37° C. water bath. The samples were loaded into a 0.8% agarose gel in 1× Tris-Borate-EDTA (TBE) at a 0.2 μg/mL ethidium bromide concentration and allowed to run in an electrophoretic chamber for 1 hour at 100V. Compounds with the highest inhibitory activity were selected for 2-fold serial dilution dose-response assays (58.6 nM-30 μM). The dose-response assays followed the same protocol with the exception of 4 U/reaction of TOP2A.
Inhibition studies of TOP2A and observed structure activity relationships (SAR). DNA catenation/decatenation or linking/unlinking of DNA is one of the main TOP2A functions essential for regulating DNA topology, and this is ATP dependent. […] Thus, as a starting point, the synthesized analogs were screened against TOP2A-dependent decatenation using 30 μM fixed concentrations, and the DNA from reactions were resolved on 0.8% agarose gels containing ethidium bromide.
Moreover, these studies provided interesting SAR, which shed light on the potential lead drug target binding interactions and affinity, biological activity, and future drug design optimization with this unique class of TOP2A inhibitors.
(§1) TOP2A decatenation assay. Human TOP2A, kDNA, and assay buffers were obtained from TopoGEN (Buena Vista, CO). The synthesized compounds were screened for their TOP2A inhibitory activity by the intensity of DNA decatenation bands on a DNA gel when compared to the vehicle. Compounds were initially incubated with TOP2A (3 U/reaction) for 20 min at a 30 μM and 1.2% DMSO concentration in a 37° C. incubator without CO2. The decatenation reaction was initiated immediately after by adding 2 mM ATP and 35 ng/reaction of kDNA, then incubated for 1 h in a 37° C. water bath. The samples were loaded into a 0.8% agarose gel in 1× Tris-Borate-EDTA (TBE) at a 0.2 μg/mL ethidium bromide concentration and allowed to run in an electrophoretic chamber for 1 h at 100V. Compounds with the highest inhibitory activity were selected for 2-fold serial dilution dose-response assays (58.6 nM-30 μM). The dose-response assays followed the same protocol with the exception of 4 U/reaction of TOP2A,
as §1, with “assays (53.6” for “assays (58.6”, “of TOP2A.” for “of TOP2A,”

[1] = system: E-cadherin promoter activity (EcadPro-RFP) in SW620 cells; assay: EcadPro-RFP (mCherry) EMT reporter assay; assay type: cell-based; conditions: Homo sapiens, SW-620; Table 3; SW620 Cells; read-out: E-cadherin Up-regulation EC50
Description: (§2) VimPro-GFP and EcadPro-RFP reporter assays. […] 35(38): p. 4990-9.]
as §2

[2] = system: vimentin promoter activity (VimPro-GFP) in SW620 cells; assay: VimPro-GFP EMT reporter assay; conditions: Homo sapiens, SW-620, read-out: Vimentin Down-regulation EC50 (μM)
Description: VimPro-GFP and EcadPro-mCherry reporter assays. VimPiro-GFP: SW620 cells were first transduced with NucLight Red virus (Essen BioSciences) and selected with Zeocin at 200 μg/mL, and then transduced with pCDH-VimPro-GFP-EF1-puro virus and selected with puromycin at 4 μg/mL. The dual fluorescently labeled cells were plated and treated in 3D tumor organoid as described. Tumor organoid images were recorded every 2 hours over a 72 hours period using an incucyte ZOOM content imaging system (Essen BioSciences) or PerkinElmer Phenix imager (PerkinElmer).
Analogs were also assessed for their ability to modulate or reverse EMT using VimPro-GFP and EcadPro-RFP SW620 reporter cells cultured as tumor organoids, determining EC50 dose responses over 72 hours (Table 2).
VimPro-GFP and EcadPro-RFP reporter assays. Stable VimPro-GFP or EcadPro-RFP SW620 reporter cells were generated using pCDH-VimPro-GFP-EF1-puro virus or pCDH-EcadPro-mCherry-EF1-puro virus as previously reported. […] Transduced cells were selected with puromycin at 2 μg/mL. The stable fluorescent labeled reporter cells were then used to generate tumor organoids as described. Tumor organoids were then treated with TOP2A inhibitors at 10 μM for an additional 72 h. Following treatment, tumor organoids were stained with 16 μM of Hoechst 33342 for 1 h, which functions as a nuclear stain for imaging segmentation. Images were taken with a 5× air objective. Z stacks were set at 20 μm apart for a total of 7 layers. Imaging analysis was performed using an Opera Phenix high content screening (HCS) system and Harmony high-content imaging and analysis software interface (PerkinElmer, MA). Nuclei were identified with Hoechst 33342 stain within each layer, and cells were found with either GFP or mCherry channel. The intensities of each fluorescence channel within the cells were calculated and thresholds were set based on the background intensities. Percentages of GFP or mCherry positive cells were calculated and normalized to the DMSO treated group.
VimPro-GFP and EcadPro-RFP reporter assays. Stable VimPro-GFP or EcadPro-RFP SW620 reporter cells were generated using pCDH-VimPro-GFP-EF1-puro virus or pCDH-EcadPro-mCherry-EF1-puro virus as previously reported. […] Transduced cells were selected with puromycin at 2 μg/mL. The stable fluorescent labeled reporter cells were then used to generate tumor organoids as described. Tumor organoids were then treated with TOP2A inhibitors at 10 μM for an additional 72 h. Following treatment, tumor organoids were stained with 16 μM of Hoechst 33342 for 1 h, which functions as a nuclear stain for imaging segmentation. Images were taken with a 5× air objective.

[3] = system: TOP2A-dependent TCF-transcription in SW620-TOP tumor organoids; assay: TCF (TOPflash) reporter assay in 3D tumor organoids; assay type: cell-based; conditions: SW620-TOP tumor organoids, 72 hours; read-out: IC50 inhibition of TCF-transcription
Description: TCF reporter assay in 3D Tumor organoid. Stable engineered cells containing pCDH-TOPflash-luc-EF1-puro were used to generate tumor organoid arrayed in 96-well plates and treated for 72 hours. One-Glo™ luciferase reagent and CellTiter-Glo™ 3D cell viability reagent (Promega) were used to determine the TCF reporter activity in viable cells.
After characterizing 3 and 7 as TOP2A ATP-competitive inhibitors, these compounds were next tested for their ability to inhibit TOP2A-dependent TCF-transcription using the well characterized TOPflash (TOP) luminescent reporter, which was used to generate a stably transduced SW620-TOP reporter cells as described previously (Zhou, et al., Oncogene 2016, 35:4990-9). These cells were used to generate single 3D tumor organoids (700 μm in diameter) uniformly arrayed in 96-well plates, which mimic aspects of tumor function observed in vivo. […] Like neo, the mode of action of compounds 3 and 7 also results in significant antitumor activity (FIGS. 3E-3H). […] In other words, the activity of 3 and 7 is long lasting, suppressing CSC stemness and related tumorigenicity. EMT is a major driving force promoting tumor cell invasion and metastasis. […] Tumor organoids were dissociated, and viable cells were washed and plated into the top chamber of 96-well invasion plate coated with Matrigel and incubated for an additional 72 hours without adding any additional compound. […] Taken together, the biological activity of 3 and 7 is consistent with the activity of neo, inhibiting TOP2A-dependent TCF-transcription that in turn reverses EMT while inhibiting the associated tumorigenic properties of mCRC.
A similar trend in IC50 values was observed compared to TOP2A enzyme studies, further supporting our proposed mechanism of action as inhibition of TOP2A-dependent TCF-transcription.
3D Tumor organoid TOPflash reporter assay. […] 35(38): p. 4990-9.] were used to generate tumor organoids arrayed in 96-well plates and treated for 72 h with TOP2A inhibitors. One-Glo™ luciferase reagent and CellTiter-Glo™ 3D cell viability reagent (Promega, WI) were used to determine the TCF reporter activity in viable cells. Briefly, reagents were added to the spheroids at 1:1 ratio (v:v) and the plates were placed on an orbital shaker (300 rpm) for 10 min at room temperature before the luminescence was read with Envision plate reader (PerkinElmer, MA). TCF reporter activity was normalized to organoid viability and inhibitors treated conditions were normalized to DMSO treated controls.

[4] = Table 1, decatenation, 30 μM fixed concentration
[5] = Table 3, 30 μM, read-out: % TOP2A Decatenation inhibition (30 μM)
[6] = Table 3, read-out: TOP2A Inhibition IC50
[7] = 1 h, Table 1, decatenation, 30 μM fixed concentration, read-out: % Inhibition TOP2A (30 μM)
[8] = Table 1, decatenation dose response, read-out: % Inhibition TOP2A (IC50 Values)

T1 sequence (P11388 whole entry): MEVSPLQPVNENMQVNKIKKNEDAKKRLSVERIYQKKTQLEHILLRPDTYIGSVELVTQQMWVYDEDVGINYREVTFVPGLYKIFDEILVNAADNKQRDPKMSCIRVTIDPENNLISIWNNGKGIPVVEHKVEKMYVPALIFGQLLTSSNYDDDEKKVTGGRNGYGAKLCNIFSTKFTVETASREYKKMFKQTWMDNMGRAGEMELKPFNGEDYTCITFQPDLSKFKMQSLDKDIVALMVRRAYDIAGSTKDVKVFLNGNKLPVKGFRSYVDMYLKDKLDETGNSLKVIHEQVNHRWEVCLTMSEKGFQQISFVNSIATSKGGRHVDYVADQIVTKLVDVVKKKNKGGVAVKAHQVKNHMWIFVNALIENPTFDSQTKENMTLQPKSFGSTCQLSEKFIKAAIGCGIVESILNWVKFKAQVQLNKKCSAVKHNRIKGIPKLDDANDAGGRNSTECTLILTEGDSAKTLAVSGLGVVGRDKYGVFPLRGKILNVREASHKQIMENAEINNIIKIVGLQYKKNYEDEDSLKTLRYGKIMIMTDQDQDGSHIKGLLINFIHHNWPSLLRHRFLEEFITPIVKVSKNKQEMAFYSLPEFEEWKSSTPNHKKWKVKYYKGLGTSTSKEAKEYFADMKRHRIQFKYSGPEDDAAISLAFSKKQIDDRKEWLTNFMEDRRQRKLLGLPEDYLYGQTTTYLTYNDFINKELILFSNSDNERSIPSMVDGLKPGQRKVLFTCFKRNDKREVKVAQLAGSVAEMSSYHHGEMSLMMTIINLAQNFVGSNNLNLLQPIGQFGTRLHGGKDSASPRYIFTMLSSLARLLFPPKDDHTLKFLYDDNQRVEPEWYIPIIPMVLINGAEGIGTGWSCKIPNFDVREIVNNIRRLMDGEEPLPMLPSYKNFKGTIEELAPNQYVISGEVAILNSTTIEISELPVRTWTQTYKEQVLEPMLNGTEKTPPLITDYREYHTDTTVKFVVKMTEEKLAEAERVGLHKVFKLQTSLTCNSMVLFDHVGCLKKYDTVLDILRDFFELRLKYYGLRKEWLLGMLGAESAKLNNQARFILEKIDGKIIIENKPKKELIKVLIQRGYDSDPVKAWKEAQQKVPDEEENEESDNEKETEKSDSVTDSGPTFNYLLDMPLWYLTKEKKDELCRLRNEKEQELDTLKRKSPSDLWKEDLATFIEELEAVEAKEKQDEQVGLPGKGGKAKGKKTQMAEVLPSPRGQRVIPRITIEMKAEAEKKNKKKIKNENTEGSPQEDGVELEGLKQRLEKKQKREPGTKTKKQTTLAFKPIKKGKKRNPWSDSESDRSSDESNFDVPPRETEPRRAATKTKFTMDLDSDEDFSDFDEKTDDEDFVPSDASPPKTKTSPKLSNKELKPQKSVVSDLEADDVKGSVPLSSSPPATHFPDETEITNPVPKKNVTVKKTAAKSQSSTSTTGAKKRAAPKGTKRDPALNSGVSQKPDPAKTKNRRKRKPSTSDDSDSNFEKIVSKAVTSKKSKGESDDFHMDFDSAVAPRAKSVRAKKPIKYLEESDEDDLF

Row | SMILES | % Inhibition TOP2A (30 μM) (Human TOP2A; [4]) | TOP2A inhibition, result in words (Human TOP2A) | EC50 [1] | EC50 [2] | further results
1 | CC(=O)Nc1ccc2c(-c3ccco3)ccnc2c1O [Analog 55] | 0.0% | significant loss of activity |  |  | 
2 | CC(=O)Nc1ccc2c(NC3CCCCCC3)ccnc2c1O [AA-34-130] |  |  | 36.5 µM | 59 µM | inhibition at 30 µM (Human TOP2A; [5]): 100%; IC50 (Human TOP2A; [6]): 1.53 µM
3 | CC(=O)Nc1ccc2c(-c3cc(Cl)ccc3O)ccnc2c1O [Analog 38] | 0.0% | no activity was observed |  |  | 
4 | CC(=O)Nc1ccc2c(NC3CCC3)ccnc2c1O [AA-34-132] |  |  | 100 µM | 27.7 µM | inhibition at 30 µM (Human TOP2A; [5]): 94%; IC50 (Human TOP2A; [6]): 6.56 µM
5 | O=C(CN1CCOCC1)Nc1ccc2c(-c3cc(F)ccc3O)ccnc2c1O [Analog 41] | 4.0% |  |  |  | IC50 [3]: 4.7 µM
6 | CC(=O)Nc1ccc2c(Nc3ccc4[nH]ccc4c3)ccnc2c1O [AA-29-136] |  |  | 8.4 µM | 4.1 µM | inhibition at 30 µM (Human TOP2A; [5]): 90%
7 | CC(=O)Nc1ccc2c(-c3cc(C(F)(F)F)ccc3O)ccnc2c1O [Analog 37] |  | excellent inhibitory activity |  |  | inhibition at 30 µM (Human TOP2A; [7]): 100%; IC50 (Human TOP2A; [8]): 9 µM
8 | O=C(CN1CCOCC1)Nc1ccc2c(NC3CCCCC3)ccnc2c1O [AA-34-171] |  |  | 48.2 µM | 17.5 µM | inhibition at 30 µM (Human TOP2A; [5]): 62%
9 | O=C(CCN1CCOCC1)Nc1ccc2c(NC3CCCCC3)ccnc2c1O [AA-34-180] |  |  | 65.5 µM | 13 µM | inhibition at 30 µM (Human TOP2A; [5]): 0%
10 | CC(=O)Nc1ccc2c(-c3cc4ccccc4s3)ccnc2c1O [Analog 54] | 0.0% | inhibition was lost |  |  | 
11 | O=C(CN1CCOCC1)Nc1ccc2c(-c3cc4ccccc4o3)ccnc2c1O [Analog 60] |  |  |  |  | inhibition at 30 µM (Human TOP2A; [7]): 100%; IC50 (Human TOP2A; [8]): 5 µM
12 | CC(=O)Nc1ccc2c(Nc3cccc(C(F)(F)F)c3)ccnc2c1O [AA-29-157] |  |  | 180 µM | 29.9 µM | 
13 | CC(=O)Nc1ccccc1-c1ccnc2c(O)c(NC(=O)CCN3CCOCC3)ccc12 [Analog 43] | 1.0% |  |  |  | 
14 | CC(=O)Nc1ccc2c(Nc3cccc(F)c3)ccnc2c1O [AA-29-146] |  |  | 9.7 µM | 7.4 µM | inhibition at 30 µM (Human TOP2A; [5]): 100%
15 | CC(=O)Nc1ccc2c(NC3CCCCC3)ccnc2c1O [AA-29-216] |  |  | 17.8 µM | 20.6 µM | inhibition at 30 µM (Human TOP2A; [5]): 100%; IC50 (Human TOP2A; [6]): 0.29 µM
16 | CC(=O)Nc1ccc2c(Nc3cccc4[nH]ccc34)ccnc2c1O [AA-29-147] |  |  | 146 µM | 14.8 µM | 
17 | CC(=O)Nc1ccc2c(-c3cccc(C(F)(F)F)c3)ccnc2c1O [Analog 31] | 97.0% | excellent inhibitory activity |  |  | IC50 (Human TOP2A; [8]): 3.4 µM
18 | CC(=O)Nc1cccc(-c2ccnc3c(O)c(NC(C)=O)ccc23)c1 [Analog 36] | 3.0% | significant loss of activity |  |  | 

Row | SMILES | % Inhibition TOP2A (30 μM) (Human TOP2A; [4]) | TOP2A inhibition, result in words (Human TOP2A) | EC50 [1] | EC50 [2] | further results
19 | CC(=O)Nc1ccc2c(-c3ccccc3)ccnc2c1O [Analog 28] | 25.0% |  |  |  | 
20 | COc1c(NC(C)=O)ccc2c(-c3cc4ccccc4s3)ccnc12 [Analog 45] |  |  |  |  | IC50 [3]: 10.7 µM
21 | CC(=O)Nc1ccc2c(-c3cccc(O)c3)ccnc2c1O [Analog 33] | 0.0% |  |  |  | 
22 | CC(=O)Nc1ccc2c(NC3CCCC3)ccnc2c1O [AA-34-131] |  |  | 21.3 µM | 23 µM | inhibition at 30 µM (Human TOP2A; [5]): 92%; IC50 (Human TOP2A; [6]): 2.16 µM
23 | CC(=O)Nc1ccc2c(-c3ccc(C(F)(F)F)cc3)ccnc2c1O [Analog 32] |  | excellent inhibitory activity |  |  | inhibition at 30 µM (Human TOP2A; [7]): 97%; IC50 (Human TOP2A; [8]): 0.7 µM
24 | CC(=O)Nc1ccc2c(-c3cncnc3)ccnc2c1O [Analog 59] | 0.0% |  |  |  | 
25 | CC(=O)Nc1ccccc1-c1ccnc2c(O)c(NC(C)=O)ccc12 [Analog 34] | 1.0% | significant loss of activity |  |  | 
26 | CC(C)(C)C(=O)Nc1ccc2c(-c3cc(F)ccc3O)ccnc2c1O [Analog 40] | 0.0% |  |  |  | 
27 | CC(=O)Nc1ccc2c(-c3ccsc3)ccnc2c1O [Analog 58] |  | improves activity compared to the 3-furanyl analog 56 |  |  | inhibition at 30 µM (Human TOP2A; [7]): 92%; IC50 (Human TOP2A; [8]): 5 µM
28 | CC(=O)Nc1ccc2c(Nc3cc(O)ccc3F)ccnc2c1O [AA-29-171] |  |  | 139 µM | 26.6 µM | 
29 | CC(=O)Nc1ccc2c(Nc3ccccc3)ccnc2c1O [AA-29-148] |  |  | 7.6 µM | 25.9 µM | inhibition at 30 µM (Human TOP2A; [5]): 100%
30 | CC(=O)Nc1ccc2c(Nc3ccc(O)cc3F)ccnc2c1O [AA-29-172] |  |  | 58.5 µM | 45.9 µM | 
31 | COc1ccc(F)cc1-c1ccnc2c(OC)c(NC(C)=O)ccc12 [Analog 6] | 0.0% |  |  |  | 
32 | CC(=O)Nc1ccc2c(-c3cccc(F)c3)ccnc2c1O [Analog 29] |  | potent inhibition of TOP2A activity |  |  | inhibition at 30 µM (Human TOP2A; [7]): 100%; IC50 (Human TOP2A; [8]): 7.8 µM
33 | CC(=O)Nc1ccc2c(-c3ccc(F)cc3)ccnc2c1O [Analog 30] | 1.0% | the activity is lost |  |  | 
34 | CC(=O)Nc1ccc2c(Nc3ccc(C(F)(F)F)cc3)ccnc2c1O [AA-29-158] |  |  | 65.1 µM | 1.36 µM | 
35 | CC(=O)Nc1ccc2c(Nc3ccc4[nH]c(C)cc4c3)ccnc2c1O [AA-29-155] |  |  | 128 µM | 9.56 µM | 
